{"source": "patent US20140328762A1", "about": "“Fluorogenic Peptide Probes and Assays” (priority 2011, published 2014)", "key": {"[1]": {"molecular_target": "E3 peptide", "conditions": "cited from earlier work"}, "[2]": {"test_system": "AP-1 DNA", "assay": "Absorbance spectra of GCN4 beacons with AP-1 DNA", "assay_type": "binding", "conditions": "1 μM beacon, 10 μM DNA", "description": "FIGS. 2A and 2B show line graphs of absorbance versus wavelength (nm). […] All samples contain 1 μM beacon, and concentration for DNA is 10 μM.\n(§1) The AP-1 DNA and AT DNA were used for GCN-4 beacons binding assays as the target and control DNAs, respectively. Rex aptamer and TAR RNA were used for Rex beacon binding assays as the target and control RNAs, respectively. For detailed structures of Rex aptamer and TAR RNA, refer to PDB 1EXY and 1MNB, respectively.\nAs shown by the shifted absorbance peaks (i.e. shift of highest peak) in FIGS. 2A and 2B, both GCN4 225/237 and GCN4 225/244 beacons allow formation of TAMRA H-dimer. […] The GCN4 225/244 beacon was selected for further characterization."}, "[3]": {"test_system": "AP-1 DNA", "assay": "Fluorescence titration of GCN4 beacon with AP-1 DNA", "assay_type": "binding", "conditions": "titration of 100 nM beacon with increasing concentration of AP-1 DNA", "description": "(§2) Samples contain 100 nM GCN4 225/244 beacon and indicated concentration of DNA.\nas §1"}, "[4]": {"test_system": "AT DNA", "assay": "Fluorescence titration of GCN4 beacon with AT DNA (negative control)", "assay_type": "binding", "conditions": "100 nM beacon", "description": "as §2, §1"}, "[5]": {"molecular_target": "E3 peptide", "assay": "CD spectra analysis of binding between unlabeled K3-b1b3 and E3 peptides", "conditions": "curve fitting"}, "[6]": {"test_system": "unrelated coiled coil-forming peptides", "assay": "Crosstalk of beacon with unrelated peptides, overall", "assay_type": "binding", "conditions": "FIG. 14", "description": "(§3) FIGS. 14A and 14B show bar graphs of relative fluorescence intensity versus different peptide beacons. Non-specific fluorescence enhancement of peptide beacons by various unrelated coiled coil-forming peptides is shown. All reagents other than the beacons are loaded to 10 μM. The data represent relative fluorescence intensity at 580 nm (bandwidth 20 nm) collected by excitation at 520 nm (band width 15 nm). (FIG. 14A) All samples contain 100 nM K3-b1b3 beacon. Columns A, B, C, D, E are beacon only, beacon with unlabeled JunLZ-Lb1b4, beacon with unlabeled FosLZ, beacon with unlabeled GCN4 244, and beacon with E3 peptide, respectively. […] Column A, B, C, D, E are beacon only, beacon with unlabeled K3-b1b3 peptide, beacon with E3 peptide, beacon with unlabeled GCN4 244, beacon with FosLZ.\n(§4) So a concern about the binding specificity naturally arises. […] It is not a surprising result, since both peptides have leucine residues at all d positions, and that multiple electrostatic interactions exist between […]."}, "[7]": {"molecular_target": "T1, FosLZ (Homo sapiens, UniProt P01100)", "T1 construct": "TDTLQAE TDQLEDE KSALQTE IANLLKE KEKLEFI LA; made in house; host or cells: E. coli BL21(DE3)", "assay": "Non-specific fluorescence enhancement (crosstalk) assay, FIG. 14, with FosLZ", "assay_type": "binding", "conditions": "100 nM beacon, 10 μM FosLZ, 580 nm, excitation 520 nm", "description": "as §3, §4"}, "[8]": {"molecular_target": "T2, unlabeled GCN4 244 (Saccharomyces cerevisiae, UniProt P03069, A244C/S225C)", "T2 construct": "[…]; MKQLEDK; GGSGG linker (internal); made in house; host or cells: E. coli BL21(DE3)", "assay": "Non-specific fluorescence enhancement (crosstalk) assay, FIG. 14, with unlabeled GCN4 244", "assay_type": "binding, yeast", "conditions": "100 nM beacon, 10 μM unlabeled GCN4 244, 580 nm, excitation 520 nm", "description": "as §3, §4"}, "[9]": {"molecular_target": "wild-type MBP (Escherichia coli, UniProt P0AEX9)", "conditions": "data not shown", "excerpt": "(§5) All spectra data were obtained with Safire II microplate reader (TECAN). Data was acquired right after mixing the beacon with its target.\n(§6) The application of using the K3-b1b3 beacon for detection of E3-fusion proteins has also been tested. For this purpose, a recombinant maltose binding protein (MBP) with E3 fused at its C-terminal end was created."}, "[10]": {"molecular_target": "E3 peptide", "assay": "Fluorescence titration of K3-b1b3 beacon with E3 peptide", "assay_type": "binding", "description": "as §5\nTo further characterize the K3-b1b3 beacon, titration of lower concentration (10 nM) of K3-b1b3 beacon has also been performed."}, "[11]": {"molecular_target": "MBP-E3 (Escherichia coli, UniProt P0AEX9)", "conditions": "data not shown", "excerpt": "as §6"}, "[12]": {"test_system": "unlabeled JunLZ-Lb1b4", "assay": "Non-specific fluorescence enhancement (crosstalk) assay, FIG. 14A, with unlabeled JunLZ-Lb1b4", "assay_type": "binding", "conditions": "100 nM beacon, 10 μM unlabeled JunLZ-Lb1b4, 580 nm, excitation 520 nm", "description": "as §3, §4"}, "[13]": {"test_system": "E3 peptide", "assay": "Non-specific fluorescence enhancement (crosstalk) assay, FIG. 14, with E3 peptide", "assay_type": "binding", "conditions": "100 nM beacon, 10 μM E3 peptide, 580 nm, excitation 520 nm", "description": "as §3, §4"}}, "note": "pKd: −log10 of the molar value. Where two headings read alike, the source gives them in different places.", "data": [{"substance": "original K3 peptide K IAALKEK IAALKEK IAALKE (SEQ ID NO:29)", "values": [{"measurement": "pKd", "setting": "[1]; literature value restated in Example 4, read-out: Kd value for binding between the K3 and E3 peptides", "result": 7.15}, {"measurement": "pKd", "setting": "[1]; reported in the literature, read-out: Kd value for binding between the original K3 and E3 peptides", "result": 7.15}]}, {"substance": "GCN4 225/244 beacon: GCN4 bZip S225C/A244C (SEQ ID NO: 27), fused to C-terminal end of MBP, TAMRA labelled", "values": [{"measurement": "change of absorbance spectrum in the presence of AP-1 DNA", "setting": "[2]", "result": "significant alteration of its absorbance spectrum"}, {"measurement": "maximum fluorescence increase", "setting": "[3]", "result": 4.3, "unit": "fold"}, {"measurement": "effect of AT DNA on fluorescence", "setting": "[4]", "result": "no effects"}]}, {"substance": "unlabeled modified K3 peptide K ICALKAK IAALKAK ICALKA GY (SEQ ID NO:12) [K3-b1b3]", "values": [{"measurement": "pKd", "setting": "[5]", "result": 7.35}]}, {"substance": "K ICALKAK IAALKAK ICALKAGY (SEQ ID NO: 12) with two 6-TAMRA fluorophores attached at the cysteines via maleimide [K3-b1b3 beacon]", "values": [{"measurement": "non-specific fluorescence enhancement by unrelated peptides", "setting": "[6]", "result": "no significant non-specific fluorescence enhancement"}, {"measurement": "fluorescence enhancement compared with the beacon only sample", "setting": "[7]", "result": 1.6, "unit": "fold"}, {"measurement": "fluorescence enhancement compared with the beacon only sample", "setting": "[8]", "result": 1.2, "unit": "fold"}, {"measurement": "effect on fluorescence emission of the beacon", "setting": "[9]", "result": "does not have effects"}, {"measurement": "pKd", "setting": "[10]; curve fitting, 1 μM beacon titration, read-out: Kd value for binding between K3-b1b3 beacon and E3 peptide", "result": 6.12}, {"measurement": "pKd", "setting": "[10]; curve fitting, titration of 10 nM beacon, read-out: Kd value for binding between K3-b1b3 beacon and E3 peptide", "result": 6.13}, {"measurement": "pKd", "setting": "[10]; read-out: Kd, result of 1 μM beacon titration (restated), 1 μM beacon titration", "result": 6.12}, {"measurement": "maximum fluorescence enhancement", "setting": "[10]; titration of 1 μM K3-b1b3 beacon with E3 peptide", "result": "about 12 fold"}, {"measurement": "binding by gel-shift assay", "setting": "[11]", "result": "Specific binding"}, {"measurement": "fluorescence enhancement compared with the beacon only sample", "setting": "[12]", "result": 1.5, "unit": "fold"}, {"measurement": "fluorescence enhancement compared with the beacon only sample", "setting": "[13]", "result": 7.0, "unit": "fold"}]}]}
